Measured values: ChEMBL document CHEMBL1152558, “A critical electrostatic interaction mediates inhibitor recognition by human asparagine synthetase” (Bioorg Med Chem, 2009)
Active and inactive are the calls of the source. No cut-off for these calls is given here.

Experiments:
[1] = target: T1, Asparagine synthetase [glutamine-hydrolyzing] (Homo sapiens) (UniProt P08243); assay: Inhibition of human recombinant ASNS expressed in Sf9 insect cells assessed as inorganic phosphate production in glutamine-dependent asparagine synthesis using continuous assay
T1 sequence (whole entry): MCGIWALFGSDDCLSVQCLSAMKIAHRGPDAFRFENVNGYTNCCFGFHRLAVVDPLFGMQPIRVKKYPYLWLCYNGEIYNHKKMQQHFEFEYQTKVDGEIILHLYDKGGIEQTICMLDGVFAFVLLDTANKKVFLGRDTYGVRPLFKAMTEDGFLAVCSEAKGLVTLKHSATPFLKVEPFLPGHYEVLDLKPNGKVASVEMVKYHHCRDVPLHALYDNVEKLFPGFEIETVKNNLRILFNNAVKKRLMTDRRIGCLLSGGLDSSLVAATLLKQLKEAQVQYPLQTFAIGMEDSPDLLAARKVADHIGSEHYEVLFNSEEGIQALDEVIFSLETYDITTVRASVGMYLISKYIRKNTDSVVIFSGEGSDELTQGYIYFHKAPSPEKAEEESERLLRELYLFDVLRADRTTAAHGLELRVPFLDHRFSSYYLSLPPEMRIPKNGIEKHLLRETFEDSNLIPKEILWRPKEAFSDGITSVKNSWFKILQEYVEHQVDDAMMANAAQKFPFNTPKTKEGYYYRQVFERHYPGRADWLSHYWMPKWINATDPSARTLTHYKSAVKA

[2] = target: T1, Asparagine synthetase [glutamine-hydrolyzing] (Homo sapiens); assay: Inhibition of human recombinant ASNS expressed in Sf9 insect cells assessed as inorganic phosphate production in ammonia-dependent asparagine synthesis using continuous assay
[3] = target: T2, Asparagine synthetase [glutamine-hydrolyzing] (Homo sapiens, UniProt P08243); assay: Inhibition of human recombinant ASNS expressed in Sf9 insect cells
T2 sequence (P08243 whole entry): T1 sequence (whole entry)

[4] = target: T2, Asparagine synthetase [glutamine-hydrolyzing]; assay: Inhibition of human recombinant ASNS expressed in Sf9 insect cells assessed as overall inhibition constant

**Q.** Which Activity [1] does the source give for C[S+]([O-])(CC(N)C(=O)O)=NS(=O)(=O)NC[C@H]1O[C@@H](n2cnc3c(N)ncnc32)[C@H](O)[C@@H]1O (mixture of isomers) here?
**A.** inactive

**Q.** What about the Activity [2] of the same compound?
**A.** inactive

**Q.** For C[S+]([O-])(C[C@H](N)C(=O)O)=NP(=O)(O)OC[C@H]1O[C@@H](n2cnc3c(N)ncnc32)[C@H](O)[C@@H]1O (some centres undefined), which Ki [3] is on record?
**A.** 20 µM

**Q.** And the Ki [4]?
**A.** 10 µM
